Test results taken from patent publication US20090325952A1, “PYRAZOLO[3,4-B]PYRIDINE COMPOUNDS, AND THEIR USE AS PDE4 INHIBITORS” (Glaxo Group Limited, priority 2006, published 2009).
Where a name gives a salt, the structure may show the parent alone.

system: LPS-induced pulmonary neutrophilia in rats; experiment: In Vivo Assay 1: LPS induced pulmonary neutrophilia in rats, intratracheal administration; design: species or system rat; conditions: after i.t. administration to the rat as a dry powder; preliminary tests
Excerpt: This assay is an animal model of acute inflammation in the lung—specifically neutrophilia induced by lipopolysaccharide (LPS)—and allows the study of putative inhibition of such neutrophilia (anti-inflammatory effect) by an intratracheally (i.t.) administered PDE4 inhibitor (“drug”). The PDE4 inhibitors are suitably in dry powder, aqueous solution or aqueous suspension form. I.t. administration is one model of inhaled administration, allowing topical delivery to the lung.
Animals: Male CD (Sprague Dawley Derived) rats supplied by Charles River, United Kingdom are housed in groups of 5 rats per cage, acclimatised after delivery for at least 7 days with bedding/nesting material regularly changed, fed on SDS diet R1 pelleted food given ad lib, and supplied with daily-changed pasteurised animal grade drinking water.
Device for dry powder administration: For these studies, a Penn Century DP-4 dry powder intratracheal (i.t.) delivery device (insufflator) is used for administration of a dry powder blend of vehicle (inhalation grade lactose) and the PDE4 inhibitor compound or salt of the invention (“drug”). Each device is numbered and the sample loading chamber is unscrewed from the main device and weighed. The i.t. delivery needle is also weighed. The drug+lactose blend or inhalation grade lactose (vehicle control) is then added to the sample chamber and this is then re-weighed. The sample chamber is fitted back on to the main device to prevent any drug being lost. This procedure is repeated for all of the Penn century devices to be used in the study (one separate device for each animal). After dosing to the animals, the sample chambers and needles are re-weighed in order to determine the amount of sample that was expelled from the device.
Device for aqueous solution administration: A blunt dosing needle, whose forward end is slightly angled to the needle axis, is used, with a flexible plastic portex canula inserted into the needle. The portex cannula is inserted into the lumen of the blunt stainless steel dosing needle and this is carefully inserted into the back of the animal's throat and into the trachea via the larynx. A known volume (200 microlitres) of the vehicle (0.2% Tween 80™ in saline) or of the solution (or suspension) drug composition is administered into the trachea using a plastic syringe that is attached to the portex cannula and dosing needle. A new internal cannula is used for each different drug group. After dosing, the needle is removed from the trachea and the animals are removed from the table and continually observed until they recover from the effects of anaesthesia. The animals are then returned to the holding cages and given free access to food and water, and are observed and any unusual behavioural changes noted. (Aqueous suspensions can be handled generally similarly.)
Drugs and Materials: Lipopolysaccharide (LPS) (Serotype:0127:B8, e.g. from Sigma, UK; e.g. L3129 prepared by phenol extraction) is dissolved in phosphate-buffered saline (PBS).
For dry powder, aqueous solution or aqueous suspension administration, PDE4 inhibitors are preferably used in size-reduced (e.g. micronised) form, for example according to the Micronisation Example(s) disclosed herein.
For dry powder administration of the drug, the PDE4 inhibitor compound or salt of the invention (drug) is administered as a dry powder blended with inhalation-grade (respiratory-grade) lactose, i.e. as a dry powder composition. The target quantity of dry powder composition administered i.t. to each animal is 2 mg. This remains constant throughout the studies. To achieve different doses, blends of the drug dry powder and lactose, containing different concentrations of the PDE4 inhibitor compound or salt of the invention (drug), are prepared. […]

In the case of `CCc1nc2c(cnn2CC)c(NC2CCOCC2)c1CNC(=O)c1ccc(NC(=O)CCCCCCCN(C)CCO)cc1` [N-{[1,6-diethyl-4-(tetrahydro-2H-pyran-4-ylamino)-1H-pyrazolo[3,4-b]pyridin-5-yl]methyl}-4-({8-[(2-hydroxyethyl)(methyl)amino]octanoyl}amino)benzamide], the “duration of action in i.t. rat LPS-induced neutrophilia model” value is reported as 4 h.

same assay, conditions: after i.t. administration to the rat as an aqueous solution; preliminary tests

`CCc1nc2c(cnn2CC)c(NC2CCOCC2)c1CNC(=O)c1ccc(NC(=O)CCCCCCCN(C)CCO)cc1` [N-{[1,6-diethyl-4-(tetrahydro-2H-pyran-4-ylamino)-1H-pyrazolo[3,4-b]pyridin-5-yl]methyl}-4-({8-[(2-hydroxyethyl)(methyl)amino]octanoyl}amino)benzamide] was tested, and the “duration of action in i.t. rat LPS-induced neutrophilia model” value was no less than 2 h.

molecular target: T1, PDE4B (human recombinant) (Homo sapiens, UniProt Q07343); experiment: Inhibition of PDE4B activity (FP and/or SPA assay); format: biochemical; conditions: generally FP assay; one reading or average of n readings; read-out: PDE4B pIC50 (generally in FP assay) (±about 0.5) (converted)
T1 construct: made in house; host or cells: Saccharomyces cerevisiae strain GL62 (PDE-deficient yeast)
Excerpt: Human recombinant PDE4B, in particular the 2B splice variant thereof (HSPDE4B2B), is disclosed in WO 94/20079 and also M. M. McLaughlin et al., “A low Km, rolipram-sensitive, cAMP-specific phosphodiesterase from human brain: cloning and expression of cDNA, biochemical characterisation of recombinant protein, and tissue distribution of mRNA”, J. Biol. Chem., 1993, 268, 6470-6476. For example, in Example 1 of WO 94/20079, human recombinant PDE4B is described as being expressed in the PDE-deficient yeast Saccharomyces cerevisiae strain GL62, e.g. after induction by addition of 150 uM CuSO4, and 100,000×g supernatant fractions of yeast cell lysates are described for use in the harvesting of PDE4B enzyme.
The ability of compounds to inhibit catalytic activity at PDE4B or 4D (human recombinant), PDE3 (from bovine aorta), PDE5 (human recombinant) or PDE6 (from bovine retina) can optionally be determined by Scintillation Proximity Assay (SPA) in a 96-well format.
Test compounds (as a solution in DMSO, suitably about 2 microlitre (ul) volume of DMSO solution) are preincubated at ambient temperature (room temperature, e.g. 19-23° C.) in Wallac Isoplates (code 1450-514) with PDE enzyme in 50 mM Tris-HCl buffer pH 7.5, 8.3 mM MgCl2, 1.7 mM EGTA, 0.05% (w/v) bovine serum albumin for 10-30 minutes (usually 30 minutes). The enzyme concentration is adjusted so that no more than 20% hydrolysis of the substrate defined below occurs in control wells without compound, during the incubation. For the PDE3, PDE4B and PDE4D assays, [5′,8-^3H]Adenosine 3′,5′-cyclic phosphate (Amersham Pharmacia Biotech, code TRK.559; or Amersham Biosciences UK Ltd, Pollards Wood, Chalfont St Giles, Buckinghamshire HP8 4SP, UK) is added to give 0.05uCi per well and about 10 nM final concentration. For the PDE5 and PDE6 assays, [8^−3H]Guanosine 3′,5′-cyclic phosphate (Amersham Pharmacia Biotech, code TRK.392) is added to give 0.05uCi per well and about 36 nM final concentration. Plates containing assay mixture, suitably approx. 100 ul volume of assay mixture, are mixed on an orbital shaker for 5 minutes and incubated at ambient temperature for 1 hour. Phosphodiesterase SPA beads (Amersham Pharmacia Biotech, code RPNQ 0150) are added (about 1 mg per well) to terminate the assay. Plates are sealed and shaken and allowed to stand at ambient temperature for 35 minutes to 1 hour (suitably 35 minutes) to allow the beads to settle. Bound radioactive product is measured using a WALLAC TRILUX 1450 Microbeta scintillation counter. For inhibition curves, 10 concentrations (e.g. 1.5 nM-30 uM) of each compound are assayed. Curves are analysed using ActivityBase and XLfit (ID Business Solutions Limited, 2 Ocean Court, Surrey Research Park, Guildford, Surrey GU2 7QB, United Kingdom) Results are expressed as pIC50 values.
The ability of compounds to inhibit catalytic activity at PDE4B (human recombinant) or PDE4D (human recombinant) can optionally be determined by IMAP Fluorescence Polarisation (FP) assay (IMAP Explorer kit, available from Molecular Devices Corporation, Sunnydale, Calif., USA; Molecular Devices code: R8062) in 384-well format.
The IMAP FP assay is able to measure PDE activity in an homogenous, non-radioactive assay format. The FP assay uses the ability of immobilised trivalent metal cations, coated onto nanoparticles (tiny beads), to bind the phosphate group of Fl-AMP that is produced on the hydrolysis of fluorescein-labelled (Fl) cyclic adenosine mono-phosphate (Fl-cAMP) to the non-cyclic Fl-AMP form. […] Binding of Fl-AMP product to the beads (coated with the immobilised trivalent cations) slows the rotation of the bound Fl-AMP and leads to an increase in the fluorescence polarisation ratio of parallel to perpendicular light. Inhibition of the PDE reduces/inhibits this signal increase. […]

T1 sequence (Q07343 1-564 isoform Q07343-2): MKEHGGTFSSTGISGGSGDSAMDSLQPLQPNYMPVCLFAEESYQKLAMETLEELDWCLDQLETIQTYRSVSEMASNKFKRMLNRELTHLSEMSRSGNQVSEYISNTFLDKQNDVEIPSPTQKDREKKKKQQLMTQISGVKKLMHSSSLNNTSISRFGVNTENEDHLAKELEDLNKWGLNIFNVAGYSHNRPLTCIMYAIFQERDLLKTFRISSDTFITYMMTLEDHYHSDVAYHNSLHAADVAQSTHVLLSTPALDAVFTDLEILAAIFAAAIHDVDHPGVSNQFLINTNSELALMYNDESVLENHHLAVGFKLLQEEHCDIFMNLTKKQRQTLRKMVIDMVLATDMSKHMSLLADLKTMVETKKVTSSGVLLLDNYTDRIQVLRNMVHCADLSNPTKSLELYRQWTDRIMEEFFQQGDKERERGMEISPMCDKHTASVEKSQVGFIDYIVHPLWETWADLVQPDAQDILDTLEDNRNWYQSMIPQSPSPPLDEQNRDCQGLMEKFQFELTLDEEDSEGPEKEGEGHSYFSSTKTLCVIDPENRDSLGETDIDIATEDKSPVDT

Compared with `CCc1nc2c(cnn2CC)c(NC2CCOCC2)c1CNC(=O)c1ccc(NC(=O)CCCCCCCN(C)CCO)cc1` [Example 1C, N-{[1,6-diethyl-4-(tetrahydro-2H-pyran-4-ylamino)-1H-pyrazolo[3,4-b]pyridin-5-yl]methyl}-4-({8-[(2-hydroxyethyl)(methyl)amino]octanoyl}amino)benzamide], `CCc1nc2c(cnn2CC)c(NC2CCOCC2)c1CNC(=O)c1ccc(NC(=O)CCCCCN(C)CCO)cc1` [Example 31, N-{[1,6-diethyl-4-(tetrahydro-2H-pyran-4-ylamino)-1H-pyrazolo[3,4-b]pyridin-5-yl]methyl}-4-({6-[(2-hydroxyethyl)(methyl)amino]hexanoyl}amino)benzamide] is 1.6-fold higher in IC50: roughly 0.0501 nM for the first, roughly 0.0794 nM for the second.

Compared with `CCc1nc2c(cnn2CC)c(NC2CCOCC2)c1CNC(=O)c1ccc(NC(=O)CCCCCCCN2CCC[C@@H]2COC)cc1` [Example 11, N-{[1,6-diethyl-4-(tetrahydro-2H-pyran-4-ylamino)-1H-pyrazolo[3,4-b]pyridin-5-yl]methyl}-4-[(8-{(2R)-2-[(methyloxy)methyl]-1-pyrrolidinyl}octanoyl)amino]benzamide trifluoroacetate], `CCc1nc2c(cnn2CC)c(NC2CCOCC2)c1CNC(=O)c1ccc(NC(=O)CCCCCCCN2CCC[C@H]2COC)cc1` [Example 12, N-{[1,6-diethyl-4-(tetrahydro-2H-pyran-4-ylamino)-1H-pyrazolo[3,4-b]pyridin-5-yl]methyl}-4-[(8-{(2S)-2-[(methyloxy)methyl]-1-pyrrolidinyl}octanoyl)amino]benzamide trifluoroacetate] is 1.6-fold lower in IC50: roughly 0.0501 nM for the first, roughly 0.0316 nM for the second.

First: CCc1nc2c(cnn2CC)c(NC2CCOCC2)c1CNC(=O)c1ccc(NC(=O)CCCCCCCN2CCOCC2)cc1 [Example 17, formate salt of N-{[1,6-diethyl-4-(tetrahydro-2H-pyran-4-ylamino)-1H-pyrazolo[3,4-b]pyridin-5-yl]methyl}-4-{[8-(4-morpholinyl)octanoyl]amino}benzamide]
Second: CCc1nc2c(cnn2CC)c(NC2CCOCC2)c1CNC(=O)c1ccc(CCCCOCCCCN2CCOCC2)cc1 [Example 20, formate salt of N-{[1,6-diethyl-4-(tetrahydro-2H-pyran-4-ylamino)-1H-pyrazolo[3,4-b]pyridin-5-yl]methyl}-4-(4-{[4-(4-morpholinyl)butyl]oxy}butyl)benzamide]
The IC50 of the first is 1.6-fold higher: roughly 0.158 nM for the first, roughly 0.1 nM for the second.

Going from `CCc1nc2c(cnn2CC)c(NC2CCOCC2)c1CNC(=O)c1ccc(CCCCOCCCCN2CCCC2)cc1` [Example 21, formate salt of N-{[1,6-diethyl-4-(tetrahydro-2H-pyran-4-ylamino)-1H-pyrazolo[3,4-b]pyridin-5-yl]methyl}-4-(4-{[4-(1-pyrrolidinyl)butyl]oxy}butyl)benzamide] to `CCc1nc2c(cnn2CC)c(NC2CCOCC2)c1CNC(=O)c1ccc(NC(=O)CCCCCCCCCCN(C)CCO)cc1` [Example 34, N-{[1,6-diethyl-4-(tetrahydro-2H-pyran-4-ylamino)-1H-pyrazolo[3,4-b]pyridin-5-yl]methyl}-4-({11-[(2-hydroxyethyl)(methyl)amino]undecanoyl}amino)benzamide], the IC50 rises from roughly 0.0631 nM to roughly 1 nM (16-fold).
